From paper PMC4010551, “Targeting Staphylococcus aureus Quorum Sensing with Nonpeptidic Small Molecule Inhibitors” (Journal of Medicinal Chemistry, 2014)
In brackets after ≈: the same amount, converted by molar mass. Entries after “also recorded” stand apart in the source; their conditions may differ. Read-outs that look alike come from different tables or passages of the source.

Key:
Staphylococcus aureus = experiment: Antibacterial activity (MIC in MH broth); assay type: cell-based; conditions: for MIC: Staphylococcus aureus; for inhibition of bacterial growth (result in words): at 100 μM
agr = experiment: microbe, parasite or virus in culture; assay type: cell-based, Staphylococcus aureus; conditions: for IC50: Staphylococcus aureus, read-out: agr IC50; for difference between MIC and agr IC50: MIC relative to agr IC50; for effect of double bond in acyl chain on activity: S18 cf. 15, S19 cf. 16
AgrC-1 = assay type: cell-based, Staphylococcus aureus; conditions: for competition with AIP-1 for cognate AgrC: blaZ-based agrP3 reporter
[1] = tested on: adherence of S. aureus to human nasal squamous cells; assay type: cell-based, Staphylococcus aureus
S. aureus strain Newman = conditions: mouse, in vivo
S. aureus membranes = target: S. aureus membranes; design: species or system Staphylococcus aureus; conditions: read-out: Kd (membrane binding)
[2] = design: method as in PMID 15623555, PMID 22178671; conditions: cited from earlier work
S. aureus USA300 = assay type: cell-based, Staphylococcus aureus; conditions: 4 at up to 100 μM
P. aeruginosa = tested on: P. aeruginosa; design: method as in PMID 21502732; conditions: cited from earlier work
C. difficile = tested on: C. difficile; design: method as in PMID 19917748; conditions: cited from earlier work

| Structure (SMILES) | MIC (Staphylococcus aureus) [µM] | IC50 (agr) [µM] | other results |
| --- | --- | --- | --- |
| CCCCCCCCOC(=O)CC(=O)N[C@H]1CCOC1=O [Compound S12] | > 100 | > 100 |  |
| CCCCCCCCCC(=O)CC(=O)N[C@H]1CCNC1=O [Compound S5] | > 100 | > 100 |  |
| O=C(Cc1ccc(Br)cc1)C1=C(O)COC1=O [Compound S21] | > 100 | > 100 |  |
| CCCCCCCCC/C(O)=C1/C(=O)N[C@@H](CCO)C1=O [Compound 5, (S)-3-Decanoyl-5-(2-hydroxyethyl)tetramic Acid] |  |  | competition with AIP-1 for cognate AgrC (AgrC-1): do not compete; decrease of maximum level of activation by AIP-1 (AgrC-1; increasing concentrations of 5 from 0 to 100 μM): over 10 fold; attachment of S. aureus to human squamous cells [1]: substantially reduced attachment; activity in murine infection model (S. aureus strain Newman): inactive; Kd (S. aureus membranes): 222 µM; ferric ion chelator (result in words) [2]: ferric ion chelators |
| CCCCCCC/C(O)=C1/C(=O)N[C@@H](CCO)C1=O [Compound 4] | > 100 |  | staphylococcal growth (S. aureus USA300): without affecting staphylococcal growth; also recorded: without inhibiting the growth; inhibition of bacterial growth (result in words) (Staphylococcus aureus): did not inhibit growth |
| CCCCCCCCCC(=O)CC(=O)N[C@H]1CCSC1=O [Compound S4] | > 100 | > 100 |  |
| CCCCCCCCC/C(O)=C1/C(=O)N[C@@H](C)C1=O [Compound 12, (S)-3-Decanoyl-5-methyltetramic acid] |  |  | inhibited agr (result in words) (agr): enhanced agr inhibitory activity |
| CCCCCCCCCC(=O)CC(=O)N[C@H]1CCC(=O)NC1=O [Compound S6] | > 100 | > 100 |  |
| CCCCCCCCCC(=O)C1=C(O)COC1=O [Compound 15] |  |  | Kd (S. aureus membranes): 258 µM |
| CCCCCCCCNC(=O)CC(=O)N[C@H]1CCOC1=O [Compound S10] | > 100 | > 100 |  |
| CCCCCCCCN(C)C(=O)CC(=O)N[C@H]1CCOC1=O [Compound S11] | > 100 | > 100 |  |
| CCCCCCCCCC(=O)CC(N)=O [Compound S2, 3-oxododecanamide] | > 100 | > 100 | inhibited agr (result in words) (agr): neither |
| CCCCC/C=C/CCC(=O)CC(=O)N[C@H]1CCOC1=O [Compound S14] | > 100 | > 100 |  |
| O=C1N[C@@H](CCO)C(=O)/C1=C(/O)Cc1ccc([N+](=O)[O-])cc1 [Compound 11] | > 100 | > 100 |  |
| CCCCCCCCCCC/C(O)=C1/C(=O)N[C@@H](CCO)C1=O [Compound 7, (S)-3-Dodecanoyl-5-(2-hydroxyethyl)tetramic Acid] |  |  | Kd (S. aureus membranes): 23 µM |
| O=C(CCCc1ccccc1)CC(=O)N[C@H]1CCOC1=O [Compound S15] | > 100 | > 100 |  |
| CCCCCCCCCC/C(O)=C1/C(=O)N[C@@H](CCO)C1=O [Compound 6] |  |  | difference between MIC and agr IC50 (agr): 5 fold |
| CC(C)CCCCCCC(=O)C1=C(O)COC1=O [Compound S17] | > 100 | > 100 |  |
| CCCCCCCCCCCCC/C(O)=C1/C(=O)N[C@@H](CCO)C1=O [Compound 8] |  |  | fold lower MIC (Staphylococcus aureus; versus 5 (MIC 100 μM)): 8 fold; difference between MIC and agr IC50 (agr): little different; Kd (S. aureus membranes): 2 µM |
| CCCCCC/C=C\CCCC(=O)C1=C(O)COC1=O [Compound S19] | > 100 |  | effect of double bond in acyl chain on activity (agr): almost abolished |
| CCCCCCCCCCCC(=O)C1=C(O)COC1=O [Compound 16, 3-Dodecanoyltetronic Acid] |  |  | fold more potent in preventing AIP-mediated activation of AgrC (AgrC-1; 16 versus 1 and 5): at least 5 fold; competition with AIP-1 for cognate AgrC (AgrC-1): do not compete; Kd (S. aureus membranes): 72 µM |

| Structure (SMILES) | MIC (Staphylococcus aureus) [µM] | IC50 (agr) [µM] | other results |
| --- | --- | --- | --- |
| O=C(CCCC1CCCCC1)CC(=O)N[C@H]1CCOC1=O [Compound S16] | > 100 | > 100 |  |
| CCCCCCCCC/C(O)=C1\C(=O)CNC1=O [Compound 13, 3-decanoyltetramic acid] |  |  | inhibited agr (result in words) (agr): enhanced agr inhibitory activity |
| CCCCCCCCCCCCCCCC(=O)C1=C(O)COC1=O [Compound 18] | > 100 |  |  |
| CCCCCCCCCC(=O)CC(=O)C1=C(O)COC1=O [Compound S24] | > 100 | > 100 |  |
| CCCCCCCCCC(=O)CC(=O)N[C@H]1CC(=O)NC1=O [Compound S7] | > 100 | > 100 |  |
| CCCCCCCCCC(=O)CC(=O)N[C@H]1CCOC1=O [Compound 1, N-(3-oxododecanoyl)-L-homoserine lactone] |  |  | MIC (Staphylococcus aureus; S. aureus, MH broth, Table 1, read-out: MIC): 100 µM (≈ 29.7 µg/mL); competition with AIP-1 for cognate AgrC (AgrC-1): do not compete; Kd (S. aureus membranes): 270 µM |
| CCCCCCCCCC(=O)CC(=O)N[C@@H]1CCOC1=O [Compound 2] |  |  | fold less active in agr inhibition than L-isomer 1 (agr; D-isomer 2 versus 1): approximately 2 fold |
| CCCCCCCCCC(O)CC(=O)N[C@H]1CCOC1=O (some centres unmarked) [Compound S9] | > 100 | > 100 |  |
| CCCCCCCCCC(=O)CC(=O)Nc1nccs1 [Compound S3] | > 100 | > 100 |  |
| CCCCCCCCC/C(O)=C1/C(=O)N[C@H](CCO)C1=O [Compound 9] | > 100 |  | fold improvement of agr inhibitory activity (agr; (R)-9 versus (S)-5): 1.5 fold |
| O=C1N[C@@H](CCO)C(=O)/C1=C(/O)CCCC1CCCCC1 [Compound 10] | > 100 | > 100 |  |
| CCC/C(O)=C1/C(=O)N[C@@H](CCO)C1=O [Compound 3] | > 100 | > 100 | inhibition of bacterial growth (result in words) (Staphylococcus aureus): did not inhibit growth; killing of P. aeruginosa (P. aeruginosa): kill P. aeruginosa; killing of C. difficile (C. difficile): not C. difficile |
| CCCCCCCCCC(=O)CC(=O)N[C@@H](CCO)C(=O)O [Compound S1, N-(3-oxododecanoyl)-L-homoserine] | > 100 | > 100 | inhibited agr (result in words) (agr): neither |
| CCCCCC(=O)C1=C(O)COC1=O [Compound 14] | > 100 |  |  |
| CCCC(=O)CC(=O)C1=C(O)COC1=O [Compound S23] | > 100 | > 100 |  |
| O=C(Cc1ccc([N+](=O)[O-])cc1)C1=C(O)COC1=O [Compound S20] | > 100 | > 100 |  |
| O=C(COc1ccc(Br)cc1)C1=C(O)COC1=O [Compound S22] | > 100 | > 100 |  |
| CCCCCCCCCC(=O)CC(=O)O[C@H]1CCOC1=O [Compound S13] |  | > 100 | MIC (Staphylococcus aureus; S. aureus, Table S1, read-out: MIC): > 100 µM |
| CCCCC/C=C/CCC(=O)C1=C(O)COC1=O [Compound S18] |  |  | effect of double bond in acyl chain on activity (agr): little effect on activity |
| CCCCCCCCCCCC(=O)N[C@H]1CCOC1=O [Compound S8] | > 100 | > 100 |  |
